Results taken from ChEMBL document CHEMBL1148359, “Design, synthesis, and biological evaluation of 2,4-diamino-5-methyl-6-substituted-pyrrolo[2,3-d]pyrimidines as dihydrofolate reductase inhibitors” (J Med Chem, 2004).

What was measured:
Dihydrofolate reductase [1] = biological target: T1, Dihydrofolate reductase (Mycobacterium avium, UniProt O30463); assay: Inhibitory concentration against Dihydrofolate reductase from Mycobacterium avium (Mycobacterium avium)
T1 sequence (O30463 whole entry): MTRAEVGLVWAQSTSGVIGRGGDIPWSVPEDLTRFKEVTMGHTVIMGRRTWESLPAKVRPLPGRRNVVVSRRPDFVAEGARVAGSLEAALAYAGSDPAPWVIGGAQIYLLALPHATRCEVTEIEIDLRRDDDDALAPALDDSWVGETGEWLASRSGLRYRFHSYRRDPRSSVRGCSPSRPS

Dihydrofolate reductase [2] = biological target: T2, Dihydrofolate reductase (Pneumocystis carinii, UniProt P16184); assay: Inhibition of Dihydrofolate reductase from Pneumocystis carinii (Pneumocystis carinii)
T2 sequence (P16184 whole entry): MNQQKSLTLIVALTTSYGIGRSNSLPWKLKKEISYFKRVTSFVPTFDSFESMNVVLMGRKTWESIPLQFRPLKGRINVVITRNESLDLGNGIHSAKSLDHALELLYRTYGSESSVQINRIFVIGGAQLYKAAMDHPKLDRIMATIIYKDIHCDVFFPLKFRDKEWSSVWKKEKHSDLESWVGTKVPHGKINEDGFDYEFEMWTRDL

Dihydrofolate reductase [3] = biological target: T3, Dihydrofolate reductase (Rattus norvegicus, UniProt Q920D2); assay: Inhibitory concentration against Dihydrofolate reductase from rat liver
T3 sequence (Q920D2 whole entry): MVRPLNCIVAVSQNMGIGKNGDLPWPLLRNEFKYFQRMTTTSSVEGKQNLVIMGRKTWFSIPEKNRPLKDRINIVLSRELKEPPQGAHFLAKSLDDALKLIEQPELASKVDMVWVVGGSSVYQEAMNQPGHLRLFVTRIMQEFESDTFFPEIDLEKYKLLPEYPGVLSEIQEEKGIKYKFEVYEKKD

[4] = Selectivity ratio (IC50 rlDHFR)/(IC50 maDHFR)
[5] = Selectivity ratio (IC50rlDHFR)/(IC50 tgDHFR)
[6] = biological target: T4, Dihydrofolate reductase (Pneumocystis carinii) (UniProt P16184); assay: Inhibition against Dihydrofolate reductase from Pneumocystis carinii (Pneumocystis carinii) at 12 uM of compound
T4 sequence (whole entry): T2 sequence (P16184 whole entry)

[7] = biological target: T5, Bifunctional dihydrofolate reductase-thymidylate synthase (Toxoplasma gondii, UniProt Q07422); assay: Inhibitory concentration against Dihydrofolate reductase from Toxoplasma gondii (Toxoplasma gondii)
T5 sequence (Q07422 whole entry): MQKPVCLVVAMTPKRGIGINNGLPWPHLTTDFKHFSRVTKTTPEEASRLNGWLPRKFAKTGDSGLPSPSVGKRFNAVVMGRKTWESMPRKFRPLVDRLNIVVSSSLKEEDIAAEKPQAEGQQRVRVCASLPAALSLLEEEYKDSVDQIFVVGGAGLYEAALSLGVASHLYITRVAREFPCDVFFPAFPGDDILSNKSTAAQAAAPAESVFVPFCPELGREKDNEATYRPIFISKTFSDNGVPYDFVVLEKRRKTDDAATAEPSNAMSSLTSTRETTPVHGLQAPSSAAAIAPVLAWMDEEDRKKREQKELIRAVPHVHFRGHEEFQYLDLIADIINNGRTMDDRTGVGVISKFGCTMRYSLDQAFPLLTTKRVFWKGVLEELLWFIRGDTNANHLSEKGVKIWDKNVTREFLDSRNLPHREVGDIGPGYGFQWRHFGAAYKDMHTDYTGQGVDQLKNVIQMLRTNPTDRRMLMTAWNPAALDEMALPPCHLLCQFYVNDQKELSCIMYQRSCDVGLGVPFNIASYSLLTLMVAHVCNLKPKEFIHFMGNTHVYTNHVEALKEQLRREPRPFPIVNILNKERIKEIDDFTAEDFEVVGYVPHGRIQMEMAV

[8] = Selectivity ratio [(IC50 rlDHFR)/(IC50 pcDHFR)

SMILES: COc1cc(CC2CN=C(N)N=C2N)cc(OC)c1OC (centres undefined)
- IC50 (Dihydrofolate reductase [1]): 0.3 µM

SMILES: Cc1c(Sc2ccc(Cl)cc2)[nH]c2nc(N)nc(N)c12
- IC50 (Dihydrofolate reductase [2]): 16.7 µM
- IC50 (Dihydrofolate reductase [3]): 19 µM
- IC50 (Dihydrofolate reductase [1]): 4 µM

SMILES: COc1ccc(Sc2[nH]c3nc(N)nc(N)c3c2C)cc1
- IC50 (Dihydrofolate reductase [2]): 112 µM
- IC50 (Dihydrofolate reductase [3]): 31.3 µM
- IC50 (Dihydrofolate reductase [1]): 0.6 µM

SMILES: Cc1c(Sc2ccc(Cl)cc2Cl)[nH]c2nc(N)nc(N)c12
- Selectivity ratio [4]: 5.79
- IC50 (Dihydrofolate reductase [2]): > 12 µM
- Selectivity ratio [5]: 5.5
- inhibition [6]: 14%
- IC50 [7]: 20 µM
- IC50 (Dihydrofolate reductase [3]): 110 µM
- IC50 (Dihydrofolate reductase [1]): 19 µM

SMILES: Cc1c(Sc2cccc3ccccc23)[nH]c2nc(N)nc(N)c12
- Selectivity ratio [4]: 6.92
- Selectivity ratio [5]: 27.9
- Selectivity ratio [8]: 0.12
- IC50 [7]: 0.16 µM
- IC50 (Dihydrofolate reductase [1]): 0.7 µM

SMILES: COc1cccc(Sc2[nH]c3nc(N)nc(N)c3c2C)c1
- IC50 (Dihydrofolate reductase [2]): 60.2 µM
- IC50 (Dihydrofolate reductase [3]): 2.06 µM
- IC50 (Dihydrofolate reductase [1]): 1.37 µM

SMILES: COc1ccccc1Sc1[nH]c2nc(N)nc(N)c2c1C
- IC50 (Dihydrofolate reductase [2]): 22 µM
- IC50 (Dihydrofolate reductase [3]): 2.32 µM
- IC50 (Dihydrofolate reductase [1]): 0.3 µM

SMILES: COc1ccc(OC)c(Sc2[nH]c3nc(N)nc(N)c3c2C)c1
- IC50 [7]: 0.17 µM
- IC50 (Dihydrofolate reductase [3]): 7.8 µM

SMILES: Cc1c(Sc2cccc(Cl)c2)[nH]c2nc(N)nc(N)c12
- IC50 (Dihydrofolate reductase [3]): 47.7 µM
- IC50 (Dihydrofolate reductase [1]): 4.4 µM
